Laboratory results published in patent publication US20120263762A1, “STABILISED PARTICLES COMPRISING 5-METHYL-(6S)-TETRAHYDROFOLATE” (BAYER PHARMA AKTIENGESELLSCHAFT, priority 2009, published 2012).

Experiment: Particle size distribution of particles (laser diffraction, volume distribution)
Assay type: physicochemical
Settings: micronized active ingredient before coating
Excerpt: When used herein, the term “d90 particle size” is intended to mean that the particle size distribution is so that at least 90% of the particles have a particle diameter of less than the specified value, calculated from the volume distribution curve under the presumption of spherical particles. In a similar way, the term “d50 particle size” is intended to mean that the particle size distribution is so that at least 50% of the particles have a particle diameter of less than the specified value, calculated from the volume distribution curve under the presumption of spherical particles.
Therefore, it is important to note that whenever the terms “particle size”, “particle size distribution”, “particle diameter”, “d90”, “d50”, etc., are used herein it should be understood that the specific values or ranges used in connection therewith are always meant to be determined from the volume distribution curve under the presumption of spherical particles. The particle size distribution may be determined by various techniques, e.g. laser diffraction, and will be known to the person skilled in the art. […] The particle size distribution of the particles, when incorporated in a wafer, may be determined by dissolving the film forming matrix, separation of the protected particles, and drying the protected particles. […]

d50: 2.2 μm
d90: 4.8 μm
Structure (SMILES): C[C@]12CCC(=O)C=C1[C@@H]1C[C@@H]1[C@H]1[C@@H]3[C@@H]4C[C@@H]4[C@@]4(CCC(=O)O4)[C@@]3(C)CC[C@@H]12 [drospirenone]
